The values below come from patent US20190315775A1, “MODIFIED […] AND PHARMACEUTICAL COMPOSITION HAVING SAME AS ACTIVE INGREDIENT” (KEIO UNIVERSITY, priority 2016, published 2019).

The test system of one series is KMS11 xenograft. As to the kind of experiment: Antitumor effect on KMS11-bearing mice (Example 16). The note with it: for Body weight compared to the control group: at the doses suppressing tumor growth; for Tumor volume compared to the control: i.p., equimolar to TC11 60 mg/kgBW. Format: in vivo, ICR/SCID mice. As for the experimental part:
TC11 and its derivatives were examined for in vivo antitumor effects using 6 KMS11 xenograft model mice. KMS11 was administered to 6-week-old ICR/SCID mice at 3×10^7 cells/mouse via hypodermic injection. Tumor volume was measured over time. The day on which each tumor volume exceeded 50 mm^3 was designated as Day 1 and observation was performed for 14 days. The single dosage of TC11 was 60 mg/kgBW, the intraperitoneal dosages of PEG11(E)-TC11 and PEG11(O)-TC11 were 177.3 mg/kgBW and 163.8 mg/kgBW, respectively, which were equimolar amounts of that of TC11. […] The final composition of the solvent was 10% DMSO+1% Tween 80/physiological saline. […] Drug administration was performed for two out of every 3 days (Day 1, 2, 4, 5, 7, 8, 10, 11, […], 13). Mice were sacrificed on Day 14, and then tumor weights were measured and in vivo findings were confirmed.

Another series has as its system high-risk MM cell lines. As to the kind of experiment: MTT cell proliferation inhibition, panel of high-risk MM cell lines. Format: cell-based. The note with it: Homo sapiens, range over the cell lines of Table 2, 48 hours. As for the experimental part: (§1) For examination of cell proliferation inhibitory activity, high-risk MM cell lines (KMM1, KMS11, KMS21, KMS26, KMS28, KMS34) established by Takemi Otsuki et al., of Kawasaki Medical School were used (Otsuki, T. et al., Int. J. Oncol., 15: 1205-1212, 1999). […] The genetic abnormality of these cell types, and in particular deletion of p53 gene were examined by FISH method (Chang, H. Blood, 105: 358-360, 2005) (WO2010/061862A1). […] These high-risk MM cell lines were treated with drugs such as TC11, HOEtO-TC11, PEG11(E)-TC11, and PEG11(O)-TC11 at arbitrary concentrations. […] Specifically, each high-risk MM cell line was prepared at a concentration of 2×10^5 cells/ml, and then seeded in an amount of 50 μl (1×10^4 cells) per well. After 24 hours, drugs such as TC11, HOEtO-TC11, PEG11(E)-TC11, and PEG11(O)-TC11 having arbitrary concentrations were added. At 48 hours after addition of each drug, 10 μL each of an MTT labeling reagent in Cell Proliferation Kit I [MTT] (Roche Diagnostics, Basel, Switzerland) was added. After 4 hours of treatment at 37° C., 100 μL each of solution buffer was added and then left to stand overnight at 37° C. Absorbance was measured using a microplate reader Infinit™ M1000 (Tecan, Maennedorf, Switzerland) at a wavelength of 570 nm. Cell viability was found from an absorbance ratio using absorbance at 0 μM designated as 100%. IC50 was calculated from a semi-logarithmic chart using Microsoft (registered trademark) Excel.

A further series has as its target T1, cereblon (CRBN) (Homo sapiens, UniProt Q96SW2).
T1 construct: recombinant full-length CRBN prepared by the above method was reacted with the beads; T7 tag (N); FLAG tag (C); made in house; host or cells: 293T cells (pcDNA3.3 vector), RIPA extract purified on Ni Sepharose excel
As to the kind of experiment: Surface plasmon resonance biosensor (BIACORE 3000) interaction with cereblon. It counts as binding. The note with it: measured at 1 μM, 2 μM and 10 μM, FIG. 9C.

Series [1] relates to KMS28 high-risk MM cell line. As to the kind of experiment: MTT cell proliferation inhibition, KMS28. Format: cell-based. The note with it: Homo sapiens, KMS28, t(4;14), del17, 48 hours, read-out: IC50, cell proliferation inhibitory activity, KMS28. As for the experimental part: as §1
The test system of series [2] is KMS34 high-risk MM cell line. As to the kind of experiment: MTT cell proliferation inhibition, KMS34. Format: cell-based. The note with it: Homo sapiens, KMS-34, KMS34, t(4;14), del17, 48 hours, read-out: IC50, cell proliferation inhibitory activity, KMS34. The protocol:
as §1

Series [3] has as its system KMS26 high-risk MM cell line. Kind of series: MTT cell proliferation inhibition, KMS26. Format: cell-based. The note with it: Homo sapiens, KMS-26, KMS26, t(4;14), t(4;16), del17, 48 hours, read-out: IC50, cell proliferation inhibitory activity, KMS26. As for the experimental part: as §1
Series [4] is described as follows: Water solubility of drugs (saturation concentration by HPLC). Format: physicochemical. The note with it: 100 mM Tris-HCl (pH 7.5); for Water solubility: 25° C., saturation concentration; for Water solubility, relative ratio (numerals in parentheses): relative to TC11.
Series [5] has as its system KMS21 high-risk MM cell line. As to the kind of experiment: MTT cell proliferation inhibition, KMS21. Format: cell-based. Conditions: Homo sapiens, KMS21, t(11;14), 48 hours, read-out: IC50, cell proliferation inhibitory activity, KMS21. The protocol: as §1
Moreover, the concentration dependency of the in vitro cell proliferation inhibitory activity of TC11, and its derivatives, PEG11(E)-TC11 and HOEtO-TC11 against high-risk MM cell line (KMS21) was examined in detail (FIG. 4). […] Such a phenomenon was similarly observed for other high-risk MM cell lines, KMS11, KMS34, and MUM24.

For series [6], the system named is KMM1 high-risk MM cell line. As to the kind of experiment: MTT cell proliferation inhibition, KMM1. It counts as cell-based. The note with it: Homo sapiens, KMM-1, KMM1, t(6;14), t(8;14), del17, 48 hours, read-out: IC50, cell proliferation inhibitory activity, KMM1. The protocol:
as §1

Series [7] relates to KMS11 high-risk MM cell line. As to the kind of experiment: MTT cell proliferation inhibition, KMS11. It counts as cell-based. The note with it: Homo sapiens, KMS-11, KMS11, t(4;14), del17, 48 hours, read-out: IC50, cell proliferation inhibitory activity, KMS11. As for the experimental part:
as §1

A further series relates to MUM24 MM cell line. Kind of series: MTT cell proliferation inhibition, MUM24. It counts as cell-based. Conditions: Homo sapiens, MUM24, t(4;14), del13, del17, 48 hours, read-out: IC50, cell proliferation inhibitory activity, MUM24.
The nature of series [8]: Dissolution in physiological saline for dosing. Format: physicochemical. The note with it: physiological saline (NaCl 0.9 w/v %) alone, dosing concentration.
[9] abbreviates: 6 KMS11 xenograft model mice, i.p. 177.3 mg/kgBW.

T1 sequence (Q96SW2 whole entry): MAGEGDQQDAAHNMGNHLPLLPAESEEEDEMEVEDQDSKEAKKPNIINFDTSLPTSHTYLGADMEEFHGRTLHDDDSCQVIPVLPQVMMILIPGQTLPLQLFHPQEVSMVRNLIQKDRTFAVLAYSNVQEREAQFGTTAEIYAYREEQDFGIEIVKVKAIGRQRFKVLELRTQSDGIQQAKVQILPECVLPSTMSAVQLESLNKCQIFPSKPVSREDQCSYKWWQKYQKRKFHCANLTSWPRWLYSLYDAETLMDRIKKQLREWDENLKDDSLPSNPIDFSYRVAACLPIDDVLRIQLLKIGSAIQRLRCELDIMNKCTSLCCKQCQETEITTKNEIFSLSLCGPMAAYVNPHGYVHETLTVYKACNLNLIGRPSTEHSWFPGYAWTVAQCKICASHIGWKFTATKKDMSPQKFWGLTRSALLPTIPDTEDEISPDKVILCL

Consider `CC(C)c1cccc(C(C)C)c1N1C(=O)c2ccc(N)cc2C1=O` [TC11, 2-(2,6-di-isopropylphenyl)-5-amino-1H-isoindole-1,3-dione, reference compound], for which, in the series on KMS11 xenograft (KMS11 xenograft mice), the “Body weight compared to the control group” value is listed as “no decrease in body weight”. The “Tumor volume compared to the control” value with KMS11 xenograft (KMS11 xenograft mice, 14 days) is on record as “significant decreases in tumor volume”. The IC50 is 2 to 8 µM with high-risk MM cell lines; 7.1 µM in series [1]; 4 µM in [2]; 3 µM in [3]; 2.8 µM in series [5]; 5.1 µM in series [6]. For the same compound, the results for the IC50 (in series [7]; in the series on MUM24 MM cell line) were 2 µM and 3 µM, respectively. In addition, the “Binding to CRBN (SPR sensorgram)” value at cereblon (CRBN) is recorded as “never bind to CRBN”. Also, the Water solubility in [4] stood at 0.002 g/100 ml. Moreover, the “Water solubility, relative ratio (numerals in parentheses)” value (“Water solubility, relative ratio” for short) in series [4] amounted to 1 ×. The “Dissolution in physiological saline” value in series [8] is on record as “hardly dissolved”.
`COCCOCCOCCOCCOCCOCCOCCOCCOCCOCCOCCOCCOc1cc2c(cc1N)C(=O)N(c1c(C(C)C)cccc1C(C)C)C2=O` [PEG11(O)-TC11]: the “Body weight compared to the control group” value with KMS11 xenograft (KMS11 xenograft mice) was “no decrease in body weight”. Moreover, the “Tumor volume compared to the control” value in the series with KMS11 xenograft (KMS11 xenograft mice, 14 days) is “significant decreases in tumor volume”. Besides, the IC50 is 5 to 60 µM with high-risk MM cell lines; 25.8 µM in series [1]; 10.5 µM in series [2]; 16.4 µM in series [3]; 22.7 µM in series [5]; 59.3 µM in [6]. Further, the values for the IC50 (in series [7]; with MUM24 MM cell line) were 4.8 µM and 9.2 µM, respectively. The “Binding to CRBN (SPR sensorgram)” value on cereblon (CRBN) is “never bind to CRBN”. In series [4], this compound returned a Water solubility of 1.47 g/100 ml. In series [4], the “Water solubility, relative ratio” value was determined as 735 ×. Moreover, the “Dissolution in physiological saline” value in series [8] is reported as “completely dissolved”.
Consider `COCCOCCOCCOCCOCCOCCOCCOCCOCCOCCOCCOCCC(=O)OCCOc1cc2c(cc1N)C(=O)N(c1c(C(C)C)cccc1C(C)C)C2=O` [PEG11(E)-TC11], for which the “Mice from which the primary lesion had completely disappeared” value in the series on KMS11 xenograft (setting [9]) is given as 1 mouse. Besides, the “Mice having tumor sizes almost the same as at initiation of administration” value with KMS11 xenograft (setting [9]) is 3 mice. Also, the “Body weight compared to the control group” value with KMS11 xenograft (KMS11 xenograft mice) is “no decrease in body weight”. Also, the “Tumor volume compared to TC11” value in the series on KMS11 xenograft (KMS11 xenograft mice, i.p. 177.3 mg/kgBW, 14 days) is listed as “significant decrease in tumor volume compared to TC11”. Also, the “Tumor volume compared to the control” value in the series on KMS11 xenograft (KMS11 xenograft mice, 14 days) is “significant decreases in tumor volume”. In addition, the IC50 with high-risk MM cell lines is 1 to 7 µM; in series [1] it was 6.8 µM; in [2] it was 2.6 µM; in [3], 2.7 µM; in series [5] it was 1.6 µM; in [6], 6.3 µM. Besides, the IC50 in [7] was 1.4 µM; in the series on MUM24 MM cell line it was 1.8 µM. Also, the “Binding to CRBN (SPR sensorgram)” value on cereblon (CRBN) is on record as “never bind to CRBN”. The compound also gave a Water solubility in [4] of 8.89 g/100 ml. For the same compound, the “Water solubility, relative ratio” value in [4] is recorded as 4,447 ×. Further, the “Dissolution in physiological saline” value in series [8] is reported as “completely dissolved”.
